PubChem BioAssay (NCI)
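Grown in 96-well plates, cells were treated for 48 hours with each compound at five concentrations. Insufficient inhibition: endpoint recorded as highest concentration tested. GI50 marks 50% less growth. TGI: concentration producing complete growth inhibition.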

Tests used:
Assay in all cases: DTP human tumour cell line panel, 48 h
[1] = tested on: SK-OV-3 ovarian
[2] = tested on: SNB-75 CNS
[3] = tested on: UACC-62 melanoma
[4] = tested on: OVCAR-4 ovarian
[5] = tested on: SNB-19 CNS
[6] = tested on: A498 renal
[7] = tested on: T-47D breast
[8] = tested on: TK-10 renal
[9] = tested on: SK-MEL-2 melanoma
[10] = tested on: HL-60(TB) leukemia
[11] = tested on: OVCAR-5 ovarian
[12] = tested on: RPMI-8226 leukemia
[13] = tested on: NCI/ADR-RES ovarian
[14] = tested on: SW-620 colon
[15] = tested on: LOX IMVI melanoma
[16] = tested on: CCRF-CEM leukemia
[17] = tested on: SK-MEL-28 melanoma
[18] = tested on: OVCAR-8 ovarian
[19] = tested on: NCI-H460 lung
[20] = tested on: M14 melanoma
[21] = tested on: SK-MEL-5 melanoma
[22] = tested on: K-562 leukemia
[23] = tested on: BT-549 breast
[24] = tested on: MOLT-4 leukemia
[25] = tested on: RXF 393 renal
[26] = tested on: PC-3 prostate
[27] = tested on: MALME-3M melanoma
[28] = tested on: UO-31 renal
[29] = tested on: MDA-MB-231 breast
[30] = tested on: SN12C renal
[31] = tested on: CAKI-1 renal
[32] = tested on: KM12 colon
[33] = tested on: SF-268 CNS
[34] = tested on: UACC-257 melanoma
[35] = tested on: SF-295 CNS
[36] = tested on: HOP-62 NSCLC
[37] = tested on: HOP-92 NSCLC
[38] = tested on: COLO 205 colon
[39] = tested on: HCT-116 colon
[40] = tested on: HS 578T breast
[41] = tested on: EKVX NSCLC
[42] = tested on: SF-539 CNS
[43] = tested on: DU-145 prostate
[44] = tested on: HCC-2998 colon
[45] = tested on: NCI-H23 lung
[46] = tested on: HCT-15 colon
[47] = tested on: HT29 colon
[48] = tested on: MDA-MB-435
[49] = tested on: SR leukemia
[50] = tested on: ACHN renal
[51] = tested on: NCI-H226 lung
[52] = tested on: NCI-H522 lung
[53] = tested on: IGROV1 ovarian
[54] = tested on: U251 CNS
[55] = tested on: A549 NSCLC
[56] = tested on: MCF7 breast
[57] = tested on: 786-0 renal

Oc1ccc(CSc2nnc(-c3ccc(Cl)cc3)n2-c2ccccc2)c2cccnc12
GI50 [1]: 2.34 µM | TGI [1]: > 100 µM | GI50 [2]: 0.802 µM | TGI [2]: > 100 µM | GI50 [3]: 1.49 µM | TGI [3]: > 100 µM | GI50 [4]: 2.07 µM | TGI [4]: > 100 µM | GI50 [5]: 0.434 µM | TGI [5]: > 100 µM | GI50 [6]: 3.89 µM | TGI [6]: > 100 µM | GI50 [7]: 1.92 µM | TGI [7]: > 100 µM | GI50 [8]: 0.756 µM | TGI [8]: > 100 µM | GI50 [9]: 1.34 µM | TGI [9]: > 72.1 µM | GI50 [10]: 0.584 µM | TGI [10]: > 100 µM | GI50 [11]: 5.73 µM | TGI [11]: > 100 µM | GI50 [12]: 0.456 µM | TGI [12]: > 100 µM | GI50 [13]: 0.211 µM | TGI [13]: > 100 µM | GI50 [14]: 0.436 µM | TGI [14]: > 100 µM | GI50 [15]: 0.425 µM | TGI [15]: > 100 µM | GI50 [16]: 0.488 µM | TGI [16]: > 100 µM | GI50 [17]: 1.15 µM | TGI [17]: > 100 µM | GI50 [18]: 0.516 µM | TGI [18]: > 100 µM | GI50 [19]: 0.368 µM | TGI [19]: > 100 µM | GI50 [20]: 0.51 µM | TGI [20]: > 100 µM | GI50 [21]: 2.22 µM | TGI [21]: > 100 µM | GI50 [22]: 0.357 µM | TGI [22]: > 100 µM | GI50 [23]: 0.731 µM | TGI [23]: > 100 µM | GI50 [24]: 0.592 µM | TGI [24]: > 100 µM | GI50 [25]: 1.79 µM | TGI [25]: > 100 µM | GI50 [26]: 0.636 µM | TGI [26]: > 100 µM | GI50 [27]: 2.39 µM | TGI [27]: > 100 µM | GI50 [28]: 0.273 µM | TGI [28]: > 100 µM | GI50 [29]: 5.84 µM | TGI [29]: > 100 µM | GI50 [30]: 0.908 µM | TGI [30]: > 100 µM | GI50 [31]: 1.27 µM | TGI [31]: > 100 µM | GI50 [32]: 0.877 µM | TGI [32]: > 100 µM | GI50 [33]: 0.633 µM | TGI [33]: > 100 µM | GI50 [34]: 2.98 µM | TGI [34]: > 100 µM | GI50 [35]: 0.732 µM | TGI [35]: > 100 µM | GI50 [36]: 0.544 µM | TGI [36]: > 100 µM | GI50 [37]: 0.351 µM | TGI [37]: 6.34 µM | GI50 [38]: > 100 µM | TGI [38]: > 100 µM | GI50 [39]: 0.375 µM | TGI [39]: > 100 µM | GI50 [40]: 0.364 µM | TGI [40]: > 23.6 µM | GI50 [41]: 1.38 µM | TGI [41]: > 100 µM | GI50 [42]: 0.444 µM | TGI [42]: > 100 µM | GI50 [43]: 0.762 µM | TGI [43]: > 100 µM | GI50 [44]: 0.733 µM | TGI [44]: > 100 µM | GI50 [45]: 0.697 µM | TGI [45]: > 100 µM | GI50 [46]: 0.162 µM | TGI [46]: > 100 µM | GI50 [47]: > 100 µM | TGI [47]: > 100 µM | GI50 [48]: 0.517 µM | TGI [48]: > 100 µM | GI50 [49]: 0.264 µM | TGI [49]: > 100 µM | GI50 [50]: 0.532 µM | TGI [50]: > 100 µM | GI50 [51]: 4.98 µM | TGI [51]: > 100 µM | GI50 [52]: 1.91 µM | TGI [52]: > 100 µM | GI50 [53]: 0.954 µM | TGI [53]: > 100 µM | GI50 [54]: 0.327 µM | TGI [54]: > 22.1 µM | GI50 [55]: 2.07 µM | TGI [55]: > 100 µM | GI50 [56]: 0.41 µM | TGI [56]: > 100 µM | GI50 [57]: 1.17 µM | TGI [57]: > 100 µM
